Test results taken from patent US20260325443A1, “OLFACTORY DELIVERY OF THERAPEUTIC PSYCHEDELICS” (Rocket Science Health Corp., priority 2023, published 2026).
Where “and” joins values, the source holds several entries; their conditions need not be identical. Equal values may be shown once. Where a name gives a salt, the structure may show the parent alone.

Columns and labels:
[1] = Plasma and tissue concentrations of ketamine via olfactory delivery compared to intravenous administration in rats (LC/MS/MS); assay type: in vivo, male Sprague Dawley rats; conditions: 5 mg/kg; for concentration at 5 min / concentration at 0.25 h / concentration at 0.5 h / concentration at 1 h / concentration at 1.5 h / concentration at 2 h / concentration at 200 min: rat, plasma; for concentration at 0.25 h: 15 min; for concentration at 0.5 h: 30 min; for concentration at 1 h: 60 min; for concentration at 1.5 h: 90 min; for concentration at 2 h: 120 min
Experimental: Drug Administration and Sample Collection: Intravenous (IV) administration was conducted by 100 μL tail vein injection. Olfactory delivery (OD) administration was conducted by a. 0.699 mm diameter cannula inserted into the right nostril with a minimal angle of 20-degrees to the target of the correct meatus.
Time course experiment and tissue concentration: 12 male Sprague Dawley rats (Age M+/−SD, Weight: 176.27-188.03 g) were administered Ketamine-HCl via IV or OD administration (resulting in two experimental groups, each with n=6). Ketamine-HCl was formulated according to the following procedures: For Ketamine-HCL 5 mg/kg OD: 24.64 mg Ketamine-HCL was added to 0.426 ml of saline, mixed well, and dissolved, with a solution concentration of 50 mg/ml. For Ketamine-HCL 5 mg/kg IV: 0.20 ml of 50 mg/ml Ketamine-HCL solution, was added to 0.60 ml of saline and mixed well to achieve a solution concentration of 12.5 mg/ml. Plasma time courses for 200 minutes were generated. Concentration of compound in brain, olfactory bulb, and plasma at t=200 minutes was quantified using LC/MS/MS.

[2] = Visualizing olfactory cleft delivery with methylene blue (nasal endoscope imaging); assay type: in vivo, human; conditions: for Olfactory Residence Time: 0.1 mL, individual participants 2.01-2.05, at least 50% of fluid at olfactory cleft
Experimental: Participants: Five healthy participants (ages 19+) with no history of sinonasal symptoms and no evidence of nasal inflammation were recruited for this study. Prior to recruitment of participants study procedures were approved by Providence Health Care research ethics board, (British Columbia, Canada) and conducted under Health Canada Investigational Testing Authorization #314993. All participants were assessed by a licensed otolaryngologist physician to confirm their eligibility. Participants completed two study visits during which a licensed otolaryngologist physician administered 0.1 mL of the visual dye tracer, methylene blue.
Study Design: During the first visit, the methylene blue was administered using the Laminar Fluid Ejection method (1.5 mm cannula; velocity=4.5 m/s). During the second visit, methylene blue was administered using a conventional nasal spray device (Pharma systems Item #10272, UPC: 063636802714). The Pharma systems spray device was used in these experiments because it was the device normally used by the compounding pharmacy for intranasal delivery. It was the device patients and clinicians were used to at this clinic.
Following delivery, the physician used a nasal endoscope to image the deposition of methylene blue to the olfactory cleft at up to five time points (1, 5, 8, 12, and 15 minutes following delivery). From each image, the physician judged whether at least 50% of the methylene blue fluid was delivered to the olfactory cleft. If <50% of the methylene blue was judged to have deposited in the olfactory cleft, imaging was stopped and that session's trial was completed.

[3] = Effect of administration routes (OD, IN, IV) on plasma, brain and olfactory bulb drug concentrations in rats (LCMS); conditions: 15 min after administration, 5.0 mg/kg
Experimental: The goal of this example was to compare nasal cannula delivery (OD) with the traditional IV and IN administration routes.
Procedure: The three routes of administration were tested on rats. A compound formulation of ketamine (5.0 mg/kg), naloxone (0.5 mg/kg), diazepam (2.0 mg/kg), and ondansetron (1.0 mg/kg) was administer. 15 minutes after the drug was administered, rats were sacrificed and samples were taken from plasma, the olfactory bulb, and the brain. To assess each route of administration's efficacy, drug concentrations in each tissue were quantified using liquid chromatography-mass spectrometry (LCMS).

**Q.** For `CNC1(c2ccccc2Cl)CCCCC1=O` (centres unmarked) [Ketamine-HCl], which concentration at 5 min ([1]; IV) is on record?
**A.** Its concentration at 5 min is 1710 ng/mL.

**Q.** And the concentration at 0.25 h ([1]; IV)?
**A.** The concentration at 0.25 h was 686 ng/mL.

**Q.** And the concentration at 0.5 h ([1]; IV)?
**A.** The concentration at 0.5 h was 330 ng/mL.

**Q.** And the concentration at 1 h ([1]; IV)?
**A.** Its concentration at 1 h is 150 ng/mL.

**Q.** What about the concentration at 1.5 h ([1]; IV) of the same compound?
**A.** The concentration at 1.5 h was 65.8 ng/mL.

**Q.** And the concentration at 2 h ([1]; IV)?
**A.** The concentration at 2 h was 27.1 ng/mL.

**Q.** What about the concentration at 200 min ([1]; IV) of the same compound?
**A.** The concentration at 200 min was 2.53 ng/mL.

**Q.** What about the concentration at 5 min ([1]; OD) of the same compound?
**A.** The concentration at 5 min was 7600 ng/mL.

**Q.** What about the concentration at 0.25 h ([1]; OD) of the same compound?
**A.** Its concentration at 0.25 h is 7250 ng/mL.

**Q.** What about the concentration at 0.5 h ([1]; OD) of the same compound?
**A.** The concentration at 0.5 h was 2630 ng/mL.

**Q.** What about the concentration at 1 h ([1]; OD) of the same compound?
**A.** Its concentration at 1 h is 383 ng/mL.

**Q.** What about the concentration at 1.5 h ([1]; OD) of the same compound?
**A.** The concentration at 1.5 h was 149 ng/mL.

**Q.** What about the concentration at 2 h ([1]; OD) of the same compound?
**A.** Its concentration at 2 h is 63 ng/mL.

**Q.** And the concentration at 200 min ([1]; OD)?
**A.** The concentration at 200 min was 5.3 ng/mL.

**Q.** For `CN(C)c1ccc2nc3ccc(=[N+](C)C)cc-3sc2c1` [Methylene Blue], which “Olfactory Residence Time” value ([2]; LFE Method (1.5 mm cannula; velocity=4.5 m/s)) is on record?
**A.** The value was 8 min and 5 min and 0 min and 1 min and 15 min.

**Q.** And the “participants with successful delivery of >50% of the methylene blue to the olfactory cleft” value ([2]; Laminar Fluid Ejection method)?
**A.** The value was “Four of the five participants”.

**Q.** And the “Olfactory Residence Time” value ([2]; conventional nasal spray)?
**A.** Its value is 0 min.

**Q.** And the “delivery of at least 50% of the dye to the olfactory cleft” value ([2]; conventional nasal spray, each of the five participants)?
**A.** The value was “failed to deliver at least 50% of the dye”.

**Q.** What does the source list for `CNC1(c2ccccc2Cl)CCCCC1=O` (centres unmarked) [ketamine]?
**A.** plasma concentration, OD vs IV [1]: higher plasma concentration of ketamine can be achieved with OD than IV; delivery to brain tissue, targeted to olfactory cleft (OD) vs traditional intranasal [3]: improved delivery to brain tissue compared to traditional intranasal sprays
